The text below walks through data of patent publication US7947708B2, “Compounds modulating C-kit activity” (Plexxikon, Inc., priority 2004, dated 2011).

Bounds are passed on as bounds.

For assay [1], the system named is cells with activating c-Kit mutations in the catalytic region. As to conditions: Ma et al., 2002; cited from earlier work.
A further assay deals with M-07e cell line. Briefly: M-07e cell proliferation stimulated by SCF (CellTiter-Glo growth inhibition). It is filed as cell-based. The note with it: 72 h, SCF 100 ng/ml, three days, CellTiter-Glo luminescence, read-out: IC50, growth inhibition of SCF stimulated M-07e cells. For orientation: ATP-based viability assays read luminescence as a measure of living cells.

Description for M-07e cell line: This inhibition is measured by the effect of compound concentration on cell growth to assess IC50 values. M-07e cells were seeded at 5×10^4 cells per well of a 96 well cell culture plate in 50 μl of cell culture medium of Iscove's Medium 1× (MOD, CellGro Mediatech catalog #15-016-CV) supplemented with 10% FBS (HyClone catalog #SH30071.03). […] Cells were also treated with staurosporine as a positive control. Cells were stimulated by adding 20 μl of 600 ng/ml SCF to a final concentration of 100 ng/ml (Biosource International SCF kit ligand catalog #PHC2115) in cell culture medium. The cells were incubated at 37° C., 5% CO2 for three days. CellTiter-Glo Buffer (Promega Cell Viability Assay catalog #G7573) and substrate were equilibrated to room temperature, and enzyme/substrate Recombinant Firefly Luciferase/Beetle Luciferin was reconstituted. The cell plates were equilibrated to room temperature for 30 minutes, then lysed by addition of an equivalent volume of the Celltiter-Glo Reagent. […] The plates were read on a Victor Wallac II using Luminescence protocol modified to read 0.1 s per well. The luminescence reading assesses the ATP content, which correlates directly with cell number such that the reading as a function of compound concentration is used to determine the IC50 value.

`Cc1ccc(NC(=O)c2ccc(CN3CCN(C)CC3)cc2)cc1Nc1nccc(-c2cccnc2)n1` [ST1571]: the “inhibition of cells with c-Kit mutations in the catalytic region” value in assay [1] is “did not inhibit the cells”.

By IC50 is commonly meant the concentration that gives 50% inhibition. Consider `FC(F)(F)c1ccc(CNc2ccc(Cc3c[nH]c4ncccc34)cn2)cc1` [Compound 1-3, [5-(1H-Pyrrolo[2,3-b]pyridin-3-ylmethyl)-pyridin-2-yl]-(4-trifluoromethyl-benzyl)-amine], for which, in the assay with M-07e cell line, the IC50 is under 1000 nM.
